# Test results from patent publication US10619182B2, “Method, device and system for testing drug sensitivity” (HITACHI, LTD., priority 2014, dated 2020).
# Key:
# Format in all cases: cell-based
# [1] = tested on: E. coli; test: Time-dependent change in live and dead bacteria ATP luminescence amount (Methods (1) to (4))
# Text: Next, a method for measuring ATP derived from the live bacteria and the dead bacteria will be described with reference to FIG. 2. A live bacteria ATP method in Method (1) is used in eliminating ATP5 outside a bacterial cell so as to measure ATP2000 included in the cell membrane of the live bacterium 2 and ATP3000 included in the cell membrane of the dead bacterium 3 having no damage to the cell membrane. A submerged ATP method in Method (2) is used in measuring the dead bacteria 4 having the damaged cell membrane and the free ATP5 in the culture liquid 1 while the bacterial cells of the live bacterium 2 and the dead bacteria 3 and 4 are included. The dead bacterium 4 serves as a measurement target, since a substrate and enzyme of enzyme luciferase reaction which are bioluminescent molecules (to be described later) enter the dead bacterium 4 from a damaged site. […]
# Next, a result example obtained in such a way that E. coli as an example is processed according to Methods (1) to (4) so as to measure an ATP amount will be described with reference to FIGS. 4a and 4b. […] The luciferase oxidizes luciferin which serves as a substrate in the presence of ATP and Mg^2+ inside the bacteria, and a luminescence amount generated at that time is proportional to the ATP amount. Accordingly, bacteria growth is evaluated, based on a change in the luminescence amount.
# In the present embodiment, the luminescence amount is represented by integration of a photon count value of 60 sec, and the unit is defined as the luminescence amount (amount of luminescence (a.u.)). As described above, the luminescence amount and the ATP amount are in a proportional relationship. In a case where the luminescence amount increases, it is determined that the ATP amount increases.
# FIG. 4a illustrates a result obtained by culturing E. coli on the absence of antibiotics. […] If the results in FIGS. 4a and 4b are compared with each other, in FIG. 4a, according to the live bacteria ATP method in Method (1), the luminescence amount increases with the lapse of the culture time until four hours of the culture time. […]
# [2] = tested on: Escherichia coli (ATCC25922 strain); test: Antimicrobial susceptibility test using the ATP method (dead bacteria ATP / live bacteria ATP ratio); details: E. coli, ABPC 4 μg/mL, LVFX 0.125 μg/mL, FIG. 11
# Experimental: (§1) In this experiment, Escherichia coli (ATCC25922 strain; hereinafter, referred to as E. coli) and Staphylococcus aureus (ATCC25923; hereinafter, referred to as S. aureus) are used as the bacterial cell. An antimicrobial susceptibility test using the ATP method is carried out for both of these. As antibiotics, ampicillin and levofloxacin (hereinafter, referred to as LVFX) are used. First, the bacterial cells are cultured overnight on an LB agar medium, and the next day, a colony is suspended in a Mueller-Hinton (hereinafter, referred to as MH) medium, thereby preparing a bacterial suspension prepared in 0.5 McFarland. Next, the bacterial suspension diluted 500 times in the MH medium is distributed as much as each 50 μL to the plate to which the MH medium containing the antibiotic whose concentration is twice the final concentration is distributed in advance as much as each 50 μL. The static culture is carried out at 37° C. for a certain period of time, and the bacterial suspension is prepared. For the final concentration of the antibiotic, ABPC is set to 4 μg/mL and LVFX is set to 0.125 μg/mL in a case where E. coli is a measurement target. In a case where S. aureus is a measurement target, ABPC is set to 0.25 μg/mL and LVFX is set to 0.125 μg/mL. The bacterial cells are compared with the bacterial cells cultured in the MH medium having no antibiotic contained therein. The live bacteria ATP is prepared by mixing 2 μL of the ATP eliminating solution with 18 μL of the above-described bacteria culture liquid, and the mixture is left static at room temperature for 30 minutes. Thereafter, 20 μL of the ATP extracting reagent is mixed therewith, and the mixture is left static at room temperature for one minute so as to prepare the live bacteria ATP. The dead bacteria ATP is prepared by adding the bacteria culture liquid onto a filter (membrane pore size 0.22 μm). The filtrate obtained through filtering using centrifugation is used as the dead bacteria ATP. The luminescence reagent is added to the prepared live bacteria ATP or dead bacteria ATP, and is subjected to photon counting for one minute. The obtained luminescence amount (amount of luminescence (a.u.)) is used as an index of the ATP amount. According to the above-described experiment, a luminescence amount ratio between the dead ATP luminescence amount and the live ATP luminescence amount is obtained. FIGS. 11 and 12 illustrate a result obtained by calculating the luminescence amount ratio as an amount ratio between the live bacteria ATP and the dead bacteria ATP.
# [3] = tested on: Staphylococcus aureus (ATCC25923); test: as above; details: S. aureus, ABPC 0.25 μg/mL, LVFX 0.125 μg/mL, FIG. 12
# Experimental: as §1
smiles,measurement,setting,value
"CC1(C)S[C@@H]2[C@H](NC(=O)[C@H](N)c3ccccc3)C(=O)N2[C@H]1C(=O)O [ABPC, ampicillin]",luminescence amount according to submerged ATP method (2) to total ATP method (4),"[1]; E. coli cultured in the presence of 8 μg/mL ampicillin, FIG. 4b",increases or does not vary greatly
same,luminescence amount of the live bacteria ATP according to Method (1),"[1]; E. coli cultured in the presence of 8 μg/mL ampicillin, after three hours of culture, FIG. 4b",decreases with the lapse of the culture time
same,action of the antibiotic on growth of live bacteria,"[1]; E. coli, 8 μg/mL ampicillin, during four hours of the culture time",stops the growth of the live bacteria so as to kill the bacteria with the lapse of time
same,time after start of antimicrobial susceptibility culture at which the effect can be determined (ratio dead bacteria ATP/live bacteria ATP = 1),[2],approximately three
same,ratio of the dead bacteria ATP amount/the live bacteria ATP amount as the culture time elapses,"[2]; MH medium, 37° C.",increases
same,time after start of antimicrobial susceptibility culture at which the effect can be determined (ratio dead bacteria ATP/live bacteria ATP = 1),[3],approximately two and a half
same,ratio of the dead bacteria ATP amount/the live bacteria ATP amount as the culture time elapses,"[3]; MH medium, 37° C.",increases
